# Entries after “also recorded” stand apart in the source; their conditions may differ. Like-named read-outs stand apart in the source and are kept apart here.
# Columns and labels:
# 5-HT1 = assay: Binding test 5-HT1; details: at 3.6 10^-5 M
# Source text: Compounds A and Compounds B of the present invention, which are examples of endo-tropyl and quinuclidylamide of 7-azaindolyl-3-carboxylic acid respectively have been studied "in vitro" for their interaction with the 5-HT1, 5-HT2 and 5-HT3 receptors.
# Binding Test: 5-HT1 5-HT2
# % of inhibition at 3.6 10^-5 M
# α2 = assay: Displacement of selective ligand from α2 receptor; assay type: binding; details: 10^-5 M; 10 µM
# Source text: (§1) The interaction of Compounds A and B with other receptors (α1, α2, benzodiazepine (o bzd), GABA A, δ) in comparison to the typical 5-HT3 antagonist Ondastron and BRL 24682 has been studied and for each case the displacement % of the single selective ligand from the corresponding receptor at concentration 10^-5 M of the compounds under examination, has been evaluated.
# [1] = test system: coughing stimulus by ac. citric; assay: Inhibition of cough induced by inhalation of citric acid; assay type: in vivo, guinea pigs; details: for ED50: Cavia porcellus, po, read-out: ID50 coughing stimulus ac. citric; for % inhibition of the coughing stimulus by ac. citric: guinea pigs, single dose 100 mg/kg
# Protocol: (§2) Besides these differences "in vitro" on the receptor behaviour great differences has been evidenced "in vivo" in the tussive stimulus inhibition provoked by inhalation of irritant citric acid as well as capsaicine aqueous solutions.
# (§3) The compounds have been tested in guinea pigs in comparison to codeine, used as standard compound, at the single dose of 100 mg/kg according to the technique of Charlier et al., (Arch. Int. Pharmacodyn., 134, 306, 1961) which has been slightly modified.
# (§4) The percent reduction evaluated in the number of short coughs after administration of the compound under examination taken in comparison to the number of short coughs observed in each of the animals to which the compound was administered, have been noted.
# (§5) For these compounds as well as for the most interesting reference compounds the dose inhibiting 50% of the short coughs (ID50) induced either by citric acid or capsaicine has been determined.
# σ = assay: Displacement of selective ligand from σ receptor (δ in text); assay type: binding; details: 10^-5 M; 10 µM
# GABA A = assay: Displacement of selective ligand from GABA A receptor; assay type: binding; details: for Dispacement percentage Gaba A: 10^-5 M, 10 µM
# [2] = test system: coughing stimulus by capsaicin; assay: Inhibition of cough induced by inhalation of capsaicin; assay type: in vivo, guinea pigs; details: for ED50: Cavia porcellus, po, read-out: ID50 coughing stimulus capsaicin; for % inhibition of the coughing stimulus by capsaicin: guinea pigs, single dose 100 mg/kg
# Protocol: as §2, §3, §4, §5
# [3] = test system: sleeping time induced by barbiturates; assay: Increase of sleeping time induced by barbiturates; assay type: in vivo, mice; details: for sleeping time increase: mice, barbiturate-induced sleep
# Source text: For each of the compounds under examination it has been also tested the effect on the increase of the sleeping time induced by barbiturates. […]
# [4] = test system: extra vasation by capsaicine; assay: Protection from capsaicine extravasation (Evans bleu); assay type: in vivo
# Source text: It is assumed that Capsaicine releases substance P from the peripheral nerve endings of the sensitive fibers C and determines the necrosis of the same. It is known that capsaicine administration provokes the formation of an exudate (extra vasation by capsaicine) which can be evaluated by concomitant Evans bleu administration.
# α1 = assay: Displacement of selective ligand from α1 receptor; assay type: binding; details: 10^-5 M; 10 µM
# Source text: as §1
# [5] = test system: coughing stimulus by capsaicin; assay: Inhibition of cough induced by inhalation of capsaicin; assay type: in vivo; details: guinea pigs
# [6] = test system: cough induced by capsaicine; assay: Antitussive effect, capsaicine aqueous solution as irritant (Table V); assay type: in vivo, mice; details: os; for short coughs average n° ± s.e. / short coughs inhib. %: single dose 100 mg/kg, mice
# Protocol: Further compound A (N-endo-8-methyl-8-azabicyclo [3,2,1] oct-3-yl)-7-azaindolyl-3-carboxamide has been tested for its antitussive effect in comparison to the closest compound belonging to the class of compounds of Japanese Kokai Tokkyo Koho JP 04 21 681, i.e., 8-methyl-8-azabicyclo [3,2,1] oct-3-yl)-1-methyl-7-azaindolyl-3-carboxamide. The compounds were administered by os at a single dose of 100 mg/kg on mice using as irritant agent capsaicine aqueous solution according to the previous mentioned technique.
# Further compound A (N-endo-8-methyl-8-azabicyclo .vertline.3,2,1.vertline. oct-3-yl)-7-azaindolyl-3-carboxamide has been tested for its antitussiv effect in comparison to the closest compound belonging to the class of compounds of Jpn. Kokai Tokkyo Koho JP 04 21 681, i.e. 8-methyl-8-azabicliclo .vertline.3,2,1.vertline. oct-3-yl)-1-methyl-7-azaindolyl-3-carboxamide. The compounds were administered by os at a single dose of 100 mg/kg on mice using as irritant agent capsaicine aqueous solution according to the previous mentioned technique.
# [7] = test system: benzodiazepine (bdz) receptor; assay: Displacement of selective ligand from benzodiazepine receptor; assay type: binding
# Source text: as §1
# [8] = test system: coughing stimulus by 2N H2 SO4; assay: Inhibition of cough induced by 2N H2SO4; assay type: in vivo, guinea pigs; details: Cavia porcellus, po, read-out: ID50 coughing stimulus 2N H2 SO4
# Acute oral toxicity = details: mouse, in vivo, mice
# Protocol: The compounds of the invention may be administered by oral, sublingual, endovenous, subcutaneous, intramuscular, rectal route and by inhalation. The preferred doses vary from about 0.05 to about 15 mg/kg/die, depending on the conditions, weight, age of the patient and on the administration route. Higher dosages of the compounds of the invention, even for a prolonged period of time, have no contraindication because of their very low toxicity.
# 5-HT3 = target: T1, 5-HT3 (Homo sapiens, UniProt P46098); assay: Binding test 5-HT3
# T1 sequence (P46098 24-478): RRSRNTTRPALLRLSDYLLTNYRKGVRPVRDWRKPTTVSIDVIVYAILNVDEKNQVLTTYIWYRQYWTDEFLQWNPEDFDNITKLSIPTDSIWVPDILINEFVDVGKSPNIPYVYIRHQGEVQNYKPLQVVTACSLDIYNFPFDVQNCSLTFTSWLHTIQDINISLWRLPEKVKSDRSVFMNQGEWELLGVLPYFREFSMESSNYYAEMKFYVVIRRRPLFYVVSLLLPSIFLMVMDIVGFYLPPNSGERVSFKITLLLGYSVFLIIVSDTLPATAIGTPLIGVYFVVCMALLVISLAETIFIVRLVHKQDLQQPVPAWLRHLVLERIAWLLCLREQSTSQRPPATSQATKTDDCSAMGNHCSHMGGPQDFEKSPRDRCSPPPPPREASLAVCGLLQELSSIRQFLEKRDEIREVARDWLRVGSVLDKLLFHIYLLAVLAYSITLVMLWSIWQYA
# 5-HT2 = assay: Binding test 5-HT2; details: at 3.6 10^-5 M
structure (smiles),measurement,setting,value
"Cc1nccn1CC1CCc2c(c3ccccc3n2C)C1=O (racemic) [Ondasetron, reference compound]",% of inhibition 5-HT1,5-HT1,7.6%
same,Dispacement percentage α2,α2,30%
same,ED50,"[1]; os, 95% confidence",209 mg/kg
same,% inhibition of the coughing stimulus by ac. citric,[1],30.5%
same,Dispacement percentage σ,σ,45%
same,interaction towards GABA A receptor (in words),GABA A,aspecific
same,Dispacement percentage Gaba A,GABA A,38%
same,ED50,"[2]; os, 95% confidence",97 mg/kg
same,% inhibition of the coughing stimulus by capsaicin,[2],50.5%
same,sleeping time increase,[3]; at the dose of 10 mg/kg,-8
same,protection from capsaicine extravasation (in words),[4]; 10 mg/kg i.p.,Solely Compound A and not Ondasetron has been found to give a 42% protection
same,Dispacement percentage α1,α1,72%
COc1ccccc1CN[C@H]1C2CCN(CC2)[C@H]1C(c1ccccc1)c1ccccc1 (relative stereo) [CP 96 345],"short cough inhibition, capsaicin",[5]; 10 mg/kg intraperitoneal,26%
same,"short cough inhibition, capsaicin",[5]; 40 mg/kg intraperitoneal,42%
"CN1C2CCC1CC(NC(=O)c1cn(C)c3ncccc13)C2 (stereo not shown) [8-methyl-8-azabicyclo [3,2,1] oct-3-yl)-1-methyl-7-azaindolyl-3-carboxamide, reference compound]",short coughs average n° ± s.e.,[6],6.5 ± 0.7
same,short coughs inhib. %,[6],6%
"COc1cc(N)c(Cl)cc1C(=O)N[C@H]1C[C@H]2CC[C@@H](C1)N2C [BRL 24682, N-(endo-8-methyl-8-azabicyclo-[3.2.1]oct-3-yl)-2-methoxy-4-amino-5-chlorobenzamide, reference compound]",Dispacement percentage α2,α2,16%
same,% inhibition of the coughing stimulus by ac. citric,[1],44.1%
same,Dispacement percentage σ,σ,0%
same,interaction towards GABA A receptor (in words),GABA A,high interaction with the benzodiazepine and GABA A receptors
same,Dispacement percentage Gaba A,GABA A,89%
same,interaction with benzodiazepine receptor (in words),[7],high interaction with the benzodiazepine and GABA A receptors
same,Dispacement percentage bdz,"[7]; 10^-5 M, 10 µM",98%
same,sleeping time increase,"[3]; oral, single dose 100 mg/kg",+34.8
same,Dispacement percentage α1,α1,28%
"COc1ccc2c3c1O[C@H]1[C@@H](O)C=C[C@H]4[C@@H](C2)N(C)CC[C@@]341 [Codeine, reference compound]",ED50,[1],65 mg/kg
same,% inhibition of the coughing stimulus by ac. citric,[1],63.2%
same,ED50,[2],74 mg/kg
same,% inhibition of the coughing stimulus by capsaicin,[2],58.4%
same,sleeping time increase,"[3]; oral, single dose 100 mg/kg",+106.4
same,ED50,[8],102 mg/kg
"CN1[C@@H]2CC[C@H]1C[C@@H](NC(=O)c1c[nH]c3ncccc13)C2 [Compound A, N-(endo-8-methyl-8-azabicyclo[3.2.1]oct-3-yl)-7-azaindolyl-3-carboxamide]",% of inhibition 5-HT1,5-HT1,0.0%
same,ED50,[1],57 mg/kg
same,"antitussive effect, citric acid (in words)","[1]; guinea pig, in vivo",depends on the dose administered; also recorded: at least equiactive as codeine
same,% inhibition of the coughing stimulus by ac. citric,[1],61.7%
same,Dispacement percentage σ,σ,70%
same,interaction towards GABA A receptor (in words),GABA A,"unusual ability of a double interaction, apparently selective, towards GABA A and δ receptors"
same,Dispacement percentage Gaba A,GABA A,83%
same,"antitussive effect, Table V (in words)",[6]; 100 mg/kg,effective as an antitussive compound; also recorded: effectiveness of compound A as antitussive compound
same,short coughs average n° ± s.e.,[6],1.8 ± 0.5
same,short coughs inhib. %,[6],75%
same,LD50,Acute oral toxicity,1000 mg/kg
same,ED50,[2],51 mg/kg
same,"antitussive effect, capsaicin (in words)","[2]; guinea pig, in vivo",depends on the dose administered; also recorded: at least equiactive as codeine
same,% inhibition of the coughing stimulus by capsaicin,[2],76.30%
same,IC50,5-HT3,3000 nM
same,interaction with 5-HT3 receptors (in words),5-HT3,very weak interaction with 5-HT3 receptors
same,interaction with 5-HT3 receptors relative to Compound B (in words),5-HT3; vs Compound B,logarithmically lower than that of Compound B
same,interaction with 5-HT3 receptors relative to Ondasetron (times lower),5-HT3; vs Ondasetron,"1,000 times"
same,sleeping time increase,"[3]; oral, single dose 100 mg/kg",-28.9
same,increase of the sleeping time induced by barbiturates (in words),"[3]; mouse, in vivo",does not show any increase of the sleeping time induced by barbiturates
same,protection from capsaicine extravasation,"[4]; 10 mg/kg intraperitoneal, vs non-treated animals",42%
same,Dispacement percentage α1,α1,13%
same,% of inhibition 5-HT2,5-HT2,8.6%
"O=C(NC1CN2CCC1CC2)c1c[nH]c2ncccc12 (stereo not shown) [Compound B, N-(1-azabicyclo[2.2.2]oct-3-yl)-7-azaindolyl-3-carboxamide]",% of inhibition 5-HT1,5-HT1,37.0%
same,% inhibition of the coughing stimulus by ac. citric,[1],46.0%
same,Dispacement percentage σ,σ,26%
same,interaction towards GABA A receptor (in words),GABA A,definitely weak or absent
same,Dispacement percentage Gaba A,GABA A,6.7%
same,% inhibition of the coughing stimulus by capsaicin,[2],21.0%
same,IC50,5-HT3,300 nM
same,sleeping time increase,"[3]; oral, single dose 100 mg/kg",-7
same,Dispacement percentage α1,α1,7%
same,% of inhibition 5-HT2,5-HT2,3.9%
OC[C@@H](O)CN1CCN(c2ccccc2)CC1 [Levodropropyzina],ED50,"[1]; os, 95% confidence",151 mg/kg
same,ED50,"[2]; os, 95% confidence",145 mg/kg
same,ED50,"[8]; os, 95% confidence",265 mg/kg
